Measurements as given in paper PMC12257394, “Design, Synthesis, and Biological Evaluation of Ferrocenyl–Cyclo-(Gly‑L‑Pro) Hybrids Sensitizing Multidrug-Resistant Cancer Cells to Anticancer Agents” (ACS Medicinal Chemistry Letters, 2025).

Key:
[1] = Neutral red uptake viability assay, SW620E; assay type: cell-based, human; conditions: human, SW620E cells (etoposide-resistant), 72 h, n = 3, read-out: Cytotoxic activity IC50 (95% CI)
Protocol: (§1) To evaluate this aspect, we investigated the viability of SW620 colon cancer cells and their multidrug-resistant variants (overexpressing ABCB1, ABCC1, and ABCG2) exposed to 1 and 10 μM 4a–e using a neutral red uptake assay (Table ). In general, compounds 4a–e exerted little or no cytotoxic effect on either SW620 or multidrug-resistant sublines even at 10 μM, with the remarkable exception of SW620C (cisplatin-selected variant of SW620) cells, which turned out to be relatively susceptible toward ferrocenyl 4a–c. […] This trend may reflect steric or electronic contributions to cellular uptake or interaction with intracellular targets. […] However, since E/Z isomeric data are currently available only for compound 4c, this hypothesis requires validation. To quantify this effect, IC50 values were determined (Table ). […]
(§2) The normal lung fibroblast MRC-5 and colorectal adenocarcinoma SW620 cell lines used in this experiment were purchased from American Type Culture Collection (USA) via LGC […]
(§3) Standards. Multidrug-resistant variants of SW620 cells were developed in our laboratory as described previously.10, 11 All cells were cultured under standard conditions (37°C, 5% CO2, 100% humidity) in high-glucose DMEM supplemented with GlutaMaxTM, HEPES (ThermoFisher Scientific, USA), and 10% fetal bovine serum (EURx, Poland). Cells were routinely tested for potential Mycoplasma contamination using the MycoProbe Mycoplasma Detection kit (R&D System, USA).
(§4) In total, 104 cells in 100 µL of complete medium were plated per well of a 96-well plate and left overnight to allow cells to adhere to the surface. Then, the cells were exposed to a desired concentration of tested compound(s). Stock solutions were prepared in DMSO and used immediately. The final DMSO concentration was constant and nontoxic (0.1% v/v). After 70-h incubation, neutral red was added to the final concentration of 1 mM. After another 2 h, the medium was aspirated, and cells were washed twice with PBS. Dye was released using 100 µL of a solubilizer (1% acetic acid in 50% ethanol) on an orbital shaker (10 min). Absorbance was read at 540 nm using EnVision Multilabel Plate Reader (Perkin Elmer, USA). Results were expressed as % of control. The IC50 parameters were calculated using GraphPad Prism version 10 (GraphPad Software, Boston, Massachusetts USA). […]
(§5) All experiments were performed in triplicate (n = 3).

[2] = Neutral red uptake viability assay, SW620; assay type: cell-based, human; conditions: human, SW620 colon cancer cells; SW620, 72 h, n = 3; read-out: Cytotoxic activity IC50 (95% CI)
Protocol: as §1, §2, §3, §4, §5

ABCG2 = target: T1, ABCG2 (Homo sapiens, UniProt Q9UNQ0); test: Pheophorbide A accumulation transport assay in SW620Mito cells; assay type: cell-based; conditions: 10 µM compound
T1 construct: ABCG2-overexpressing SW620C and SW620Mito; endogenous in cells; host or cells: SW620Mito (mitoxantrone-resistant variant of SW620, developed in the authors' laboratory by drug selection)
T1 sequence (Q9UNQ0 1-655): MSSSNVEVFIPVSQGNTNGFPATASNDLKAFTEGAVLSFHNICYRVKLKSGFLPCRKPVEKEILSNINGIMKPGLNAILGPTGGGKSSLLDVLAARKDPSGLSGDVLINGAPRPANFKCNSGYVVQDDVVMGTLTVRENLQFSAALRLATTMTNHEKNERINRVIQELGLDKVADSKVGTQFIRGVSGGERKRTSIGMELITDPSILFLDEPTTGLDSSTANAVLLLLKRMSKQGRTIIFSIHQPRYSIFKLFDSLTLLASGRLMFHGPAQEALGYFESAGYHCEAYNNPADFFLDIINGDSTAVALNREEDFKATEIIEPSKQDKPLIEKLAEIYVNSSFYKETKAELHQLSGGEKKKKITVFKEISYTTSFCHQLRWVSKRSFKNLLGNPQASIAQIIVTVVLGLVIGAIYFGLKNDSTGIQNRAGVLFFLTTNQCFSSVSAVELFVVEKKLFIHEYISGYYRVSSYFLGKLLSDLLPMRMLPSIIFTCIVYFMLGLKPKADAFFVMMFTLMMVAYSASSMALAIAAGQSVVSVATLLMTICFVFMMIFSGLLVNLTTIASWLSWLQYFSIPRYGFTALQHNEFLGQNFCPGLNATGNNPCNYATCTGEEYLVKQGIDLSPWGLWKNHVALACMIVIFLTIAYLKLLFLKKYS
From the text: To confirm the hypothesis of direct interaction between putative ABC protein inhibitors and transporter molecules, we conducted a series of experiments based on fluorescent probe transport as described previously. None of the compounds affected 2′,7′-bis(2-carboxyethyl)-5-(and-6)-carboxyfluorescein (BCECF) efflux out of SW620M cells, indicating the lack of interaction between the putative inhibitors and ABCC1 (Figure A). […] As anticipated, none of the newly synthesized compounds affected dye accumulation in drug-sensitive SW620 cells (data not shown). […]
Respective samples were supplemented with a specific fluorescent marker (100 nM calcein AM for ABCB1, 100 nM BCECF AM for ABCC1, and 1 µM pheophorbide A for A BCG2). […] For ABCB1 and ABCG2 assays (dye accumulation assays), intracellular fluorescence was measured by flow cytometry (FACSymphony A1, Becton, Dickinson and Company, New Jersey, USA) immediately after dye addition (time 0) and every 3–5 min up to approximately 30 min using a flow cytometer set at 488 nm excitation and 530/30 nm emission for the calcein/ABCB1 assay and 400 nm excitation and 655/8 nm emission for the pheophorbide A/ABCG2 assay. […] The intracellular BCECF concentration was then immediately measured at 488 nm excitation and 530/30 nm emission (time 0). […]

| SMILES | IC50 at 72 h [1] | IC50 at 72 h [2] | increase of intracellular retention of pheophorbide A (ABCG2) |
| --- | --- | --- | --- |
| O=C1N/C(=C/c2ccccc2)C(=O)N2CCC[C@@H]12 [(S,E)-4e] | > 100 µM | > 100 µM |  |
| O=C1N/C(=C\c2ccccc2-[c-]2cccc2)C(=O)N2CCC[C@@H]12.[Fe+2].c1cc[cH-]c1 [(S,Z)-4b] |  |  | ≤ 2.9 fold |
| O=C1N/C(=C\c2ccc(-[c-]3cccc3)cc2)C(=O)N2CCC[C@@H]12.[Fe+2].c1cc[cH-]c1 [(S,Z)-4d] |  |  | ≤ 2.9 fold |
| O=C1N/C(=C\c2ccccc2)C(=O)N2CCC[C@@H]12 [(S,Z)-4e] | > 100 µM | > 100 µM |  |
